Reference: patent US5955520A, “Photochromic indeno-fused naphthopyrans” (PPG Industries, Inc., priority 1996, dated 1999)

Experiments:
[1] = photochromic response rates on an optical bench (test squares); assay type: physicochemical; conditions: for ΔOD @ Saturation: UV exposure continued for 20 minutes; for ΔOD @ Saturation / Sensitivity ΔOD/min: polymer test square, 75° F.; for Sensitivity ΔOD/min: first five (5) seconds of UV exposure, expressed per minute, 1.5 times 10^-3 molal; for Bleach Rate T 1/2: time for absorbance to reach one half the highest absorbance after removal of activating light, room temperature (75° F., 23.9° C.)
Procedure: (§1) Testing was done with the Example 1 and Comparative Example 1 photochromic naphthopyrans incorporated into polymeric samples by the following method. The quantity of naphthopyran calculated to yield a 1.5 times 10^-3 molal solution was added to a flask containing 50 grams of a monomer blend of 4 parts ethoxylated bisphenol A dimethacrylate (BPA 2EO DMA), 1 part poly(ethylene glycol) 600 dimethacrylate, and 0.033 weight percent 2,2'-azobis(2-methyl proprionitrile) (AIBN). The naphthopyran was dissolved into the monomer blend by stirring and gentle heating, if necessary. After a clear solution was obtained, it was poured into a flat sheet mold having the interior dimensions of 2.2 mm×6 inches (15.24 cm)×6 inches (15.24 cm). The mold was sealed and placed in a horizontal air flow, programmable oven set to increase the temperature from 40° C. to 95° C. over a 5 hour interval, hold the temperature at 95° C. for 3 hours and then lower it to 60° C., for at least 2 hours before the end of the curing cycle. After the mold was opened, the polymer sheet was cut using a diamond blade saw into 2 inch (5.1 centimeters) test squares.
The photochromic test squares of Part A were tested for photochromic response rates on an optical bench. Prior to testing on the optical bench, the photochromic test squares were exposed to 365 nanometer ultraviolet light for about 15 minutes to activate the photochromic compounds and then placed into a 76° C. oven for about 15 minutes to bleach the photochromic compounds. The test squares were then cooled to room temperature, exposed to fluorescent room lighting for at least 2 hours and then kept covered for at least 2 hours prior to testing on an optical bench maintained at 75° F. (23.90° C.).
The optical bench comprises a 150 watt Xenon arc lamp, a tungsten lamp, power supplies for both lamps, condensing lenses as needed to maintain collimated light beams from both lamps, a remote controlled shutter, a copper sulfate bath acting as a heat sink for the arc lamp, a Schott WG-320 nm cut-off filter which removes short wavelength radiation, neutral density filter(s), a sample holder in which the sample to be tested is inserted, a photopic filter, light detector, and radiometer assembly, a strip chart recorder, and a means for maintaining the alignment of the aforestated components during testing.
Change in optical density (Δ OD) of a sample was determined by inserting a photochromic test sample in the bleached state into the sample holder, adjusting the transmittance scale to 100%, opening the shutter from the Xenon lamp to provide ultraviolet radiation to change the sample from the bleached state to an activated (darkened) state, measuring the transmittance through the sample. The transmittance was measured by directing a beam of light from the tungsten lamp at a small angle normal to the surface of the sample, through the sample, and to a photopic filter, light detector and radiometer assembly. The photopic filter passes wavelengths such that the detector mimics the response of the human eye and produces output signals that are processed by the radiometer. The change in optical density was calculated according to the formula Δ OD=log(100/%Ta) where %Ta is the percent transmittance in the activated state and the logarithm is to the base 10.
The Δ OD/Min, which represents the sensitivity of the photochromic compound's response to UV light, was measured over the first five (5) seconds of UV exposure, then expressed on a per minute basis. The saturation optical density (OD) was taken under identical conditions as the Δ OD/Min, except UV exposure was continued for 20 minutes. The lambda max (Vis) is the wavelength in the visible spectrum at which the maximum absorption of the activated (colored) form of the photochromic compound in the test square occurs. […]

[2] = UV/Visible spectrophotometer test of photochromic test squares (lambda max, molal absorptivity); assay type: physicochemical; conditions: for λ max Vis (major) / λ max Vis (minor): activated (colored) form; for λ max Vis (major): major peak; for λ max Vis (major) / λ max Vis (minor) / Molal Absorpt. (ε) / λ max UV: test square; for λ max Vis (minor): minor peak; for Molal Absorpt. (ε): at λ max in the UV, ε=A/bm; for λ max UV: ultraviolet wavelength closest to the visible spectrum
Procedure: as §1
The photochromic test square polymerizates of Example 1 and Comparative Example 1 prepared in Part A were tested in a UV/Visible spectrophotometer to determine the lambda (λ) max (Vis) and the lambda max (UV) wavelengths. The lambda max (Vis) is the wavelength of the visible spectrum at which the maximum absorption of the activated (colored) form of the photochromic compound in a test square occurs. The lambda max (UV) is the wavelength of the ultraviolet range closest to the visible spectrum at which the absorption of the photochromic compound occurs.
The molal absorptivity or molal extinction coefficient (ε) reported in Table 2 is equal to the absorbance of the photochromic compound in a test square at the λ max in the UV (A) divided by the thickness of the test square in centimeters (b) multiplied by the concentration of the photochromic compound in the test square in moles per kilogram (m) according to the formula: ε=A/bm

[3] = in comparison to Comparative Example (CE) 1

| Compound | ΔOD @ Saturation [1] | Sensitivity ΔOD/min [1] | Bleach Rate T 1/2 [1] [min] | λ max Vis (major) [2] [nm] | λ max Vis (minor) [2] [nm] | Molal Absorpt. (ε) [2] | λ max UV [2] [nm] | bleach rate, i.e., fade rate (in words) [1] | sensitivity, i.e., coloration rate (in words) [1, 3] | Δ OD at saturation, i.e., activated intensity (in words) [1, 3] | molal absorptivity (ε) in the UV spectrum (in words) ([2]; in comparison to CE 1) | λ max UV and λ max Vis of the major peak (in words) ([2]; in comparison to CE 1, bathochromic shift) |
| --- | --- | --- | --- | --- | --- | --- | --- | --- | --- | --- | --- | --- |
| COC(=O)c1c2c(c3ccccc3c1-c1ccccc1)OC(c1ccccc1)(c1ccccc1)C=C2 [CE 1, 2,2-diphenyl-5-methoxycarbonyl-6-phenyl-[2H]-naphtho[1,2-b]pyran, reference compound] | 0.68 | 0.19 ΔOD/min | 3.83 | 482 | 407 | 5709 | 346 |  |  |  |  |  |
| CCOC(=O)CC1(O)c2ccccc2-c2c1c1c(c3ccccc23)OC(c2ccccc2)(c2ccccc2)C=C1 (stereo not shown) [Example 1, 3,3-diphenyl-13-hydroxy-13-(2-oxo-2-ethoxyethyl)-1H-indeno[2,1-f]naphtho[1,2-b] pyran] | 1.0 | 0.34 ΔOD/min | 5.63 | 536 | 425 | 12,218 | 360 | acceptable bleach rate | greater sensitivity | higher Δ OD at saturation | higher molal absorptivity | higher λ max UV and λ max Vis of the major peak |
